Here are results for two compounds from publication PMC12615753, “Glutathione as a taste modulator: molecular mechanisms of interaction with umami and sweet taste receptors” (Food Chemistry: Molecular Sciences, 2025).

This test deals with T1, hTAS1R1 A170W/rTAS1R3 (UniProt Q7RTX1+Q923K1, A170W).
T1 construct: The cDNA coding region of rTAS1R3 was synthesized with optimized-codon usage for human expression; expressed in transfected cells; host or cells: HEK293T/17
T1 sequence (Q7RTX1 21-841 A170W): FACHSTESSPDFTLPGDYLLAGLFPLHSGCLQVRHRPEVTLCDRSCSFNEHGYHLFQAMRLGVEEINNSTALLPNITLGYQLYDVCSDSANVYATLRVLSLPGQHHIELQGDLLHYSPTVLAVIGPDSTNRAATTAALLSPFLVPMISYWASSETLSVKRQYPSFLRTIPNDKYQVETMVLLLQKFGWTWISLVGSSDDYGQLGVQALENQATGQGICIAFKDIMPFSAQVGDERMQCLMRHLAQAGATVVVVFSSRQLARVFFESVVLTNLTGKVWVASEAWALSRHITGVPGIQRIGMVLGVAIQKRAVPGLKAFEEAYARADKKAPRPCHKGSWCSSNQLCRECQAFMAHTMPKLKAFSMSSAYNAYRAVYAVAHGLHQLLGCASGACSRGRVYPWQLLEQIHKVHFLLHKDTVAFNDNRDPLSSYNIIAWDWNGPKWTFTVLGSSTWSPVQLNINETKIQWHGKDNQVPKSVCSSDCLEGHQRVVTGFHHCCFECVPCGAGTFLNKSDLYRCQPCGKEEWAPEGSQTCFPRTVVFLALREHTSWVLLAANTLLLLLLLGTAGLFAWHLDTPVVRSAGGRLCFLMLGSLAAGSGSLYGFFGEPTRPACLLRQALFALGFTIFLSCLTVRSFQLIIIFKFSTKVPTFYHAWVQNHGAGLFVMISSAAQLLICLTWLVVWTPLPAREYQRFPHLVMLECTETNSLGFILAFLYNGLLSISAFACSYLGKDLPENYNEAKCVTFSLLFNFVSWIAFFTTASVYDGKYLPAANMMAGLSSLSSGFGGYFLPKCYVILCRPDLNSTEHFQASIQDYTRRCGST
T1 sequence (Q923K1 21-858): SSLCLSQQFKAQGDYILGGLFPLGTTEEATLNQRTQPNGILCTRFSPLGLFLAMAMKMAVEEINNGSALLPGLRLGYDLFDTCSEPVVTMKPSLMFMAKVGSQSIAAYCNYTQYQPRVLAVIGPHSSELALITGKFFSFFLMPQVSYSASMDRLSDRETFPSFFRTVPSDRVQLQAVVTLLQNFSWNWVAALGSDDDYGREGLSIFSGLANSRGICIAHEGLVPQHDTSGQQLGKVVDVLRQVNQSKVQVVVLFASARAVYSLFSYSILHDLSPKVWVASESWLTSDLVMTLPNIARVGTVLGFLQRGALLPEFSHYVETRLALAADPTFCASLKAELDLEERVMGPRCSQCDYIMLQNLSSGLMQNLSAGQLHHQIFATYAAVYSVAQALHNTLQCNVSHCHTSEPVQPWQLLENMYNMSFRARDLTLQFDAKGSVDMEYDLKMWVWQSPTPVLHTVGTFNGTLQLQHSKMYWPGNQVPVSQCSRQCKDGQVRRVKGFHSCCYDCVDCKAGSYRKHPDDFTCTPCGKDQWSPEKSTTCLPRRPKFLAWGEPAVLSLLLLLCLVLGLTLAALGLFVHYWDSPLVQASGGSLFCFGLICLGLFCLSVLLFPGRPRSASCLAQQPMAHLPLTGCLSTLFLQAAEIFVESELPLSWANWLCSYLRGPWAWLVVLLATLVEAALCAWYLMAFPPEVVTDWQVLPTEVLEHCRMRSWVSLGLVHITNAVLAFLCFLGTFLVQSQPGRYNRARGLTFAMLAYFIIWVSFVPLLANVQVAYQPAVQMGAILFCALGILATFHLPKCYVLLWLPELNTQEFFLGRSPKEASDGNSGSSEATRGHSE
The experiment in a line: Calcium assay, hTAS1R1 mutant co-expressed with rTAS1R3. Format: cell-based, human, rat.

As for `N[C@@H](CCC(=O)N[C@@H](CS)C(=O)NCC(=O)O)C(=O)O` [GSH, γ-L-glutamyl-L-cysteinyl-glycine], the EC50 was found to be 5.29 ± 1.56 mM. Besides, where the note is “A170W, GSH”, the “Max ∆F/F0” value is listed as 0.09 ± 0.01 and the “R1 = mutant EC50/WT EC50” value came to 2.1.
As to `N[C@@H](CCC(=O)O)C(=O)O` [L-Glu, L-glutamic acid, reference compound], under “A170W”, the “response to the agonist alone, vs WT” value was “completely suppressed”.
